Reference: US20240239775A1, “FXR REGULATOR, PREPARATION METHOD THEREFOR, PHARMACEUTICAL COMPOSITION THEREOF AND USE THEREOF” (QINGDAO RUIJI MEDICAL TECHNOLOGY CO., LTD., priority 2021, published 2024)

Legend:
FXR = molecular target: T1, FXR (Homo sapiens, UniProt Q96RI1); test: FXR antagonist screening by TR-FRET (LanthaScreen TR-FRET FXR co-activation assay kit); type: biochemical; conditions: TR-FRET with CDCA, geometric means of at least two independent runs
T1 construct: 5 μL of 20 nM FXR-LBD Complete Coregulator buffer G; purchased ThermoFisher PV4833
T1 sequence (Q96RI1 262-486 limits assumed): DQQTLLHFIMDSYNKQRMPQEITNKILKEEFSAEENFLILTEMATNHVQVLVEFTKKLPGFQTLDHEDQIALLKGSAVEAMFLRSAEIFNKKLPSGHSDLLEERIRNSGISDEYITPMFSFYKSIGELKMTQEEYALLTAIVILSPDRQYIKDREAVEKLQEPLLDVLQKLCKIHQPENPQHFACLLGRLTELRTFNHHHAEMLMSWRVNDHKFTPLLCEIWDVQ
Outline: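 FXR-LBD (20 nM working solution) mixed with compound, CDCA (200 μM working solution) as agonist, Fluorescein-SRC2-2 and Tb-anti-GST antibody in Coregulator buffer G; 10 h at room temperature. Coactivator recruitment read by TR-FRET, triplicate wells.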

[1] = Table 1.1, FXR antagonistic activity
[2] = Table 1.2, FXR antagonistic activity

SMILES	IC50 (FXR; [1])	melting point	IC50 (FXR; [2])
Cc1c(C(=O)O)oc2ccc(S(=O)(=O)N(CCc3ccccc3)Cc3c(F)cccc3Cl)cc12 [Example F27-S47, 3-methyl-5-(N-(2-fluoro-6-chlorobenzyl)-N-phenethylsulfamoyl)benzofuran-2-carboxylic acid]	0.1 to 10 µM	195 to 196 °C	
Cc1c(C(=O)O)oc2ccc(S(=O)(=O)N(CCc3ccccc3)c3cccc(N4CCN(C)CC4)c3)cc12 [Example F27-S78, 3-methyl-5-(N-(3-(4-methylpiperazin-1-yl)phenyl)-N-phenethylsulfamoyl)benzofuran-2-carboxylic acid]	50 to 100 µM	232 to 233 °C	
Cc1c(C(=O)O)oc2ccc(S(=O)(=O)N(CCc3ccccc3)c3ccc(N4CCN(C(=O)OC(C)(C)C)CC4)cc3)cc12 [Example F27-S65, 3-methyl-5-(N-(4-(4-(tert-butoxycarbonyl)piperazin-1-yl)phenyl)-N-phenethylsulfamoyl)benzofuran-2-carboxylic acid]	10 to 50 µM	> 380 °C (dec.)	
Cc1c(C(=O)O)oc2ccc(S(=O)(=O)N(CCc3ccccc3)c3ccc(CN4CCN(C(=O)OC(C)(C)C)CC4)cc3)cc12 [Example F27-S76, 3-methyl-5-(N-(4-((4-(tert-butoxycarbonyl)piperazin-1-yl)methyl)phenyl)-N-phenethylsulfonamide)benzofuran-2-carboxylic acid]	10 to 50 µM	234 to 235 °C	
Cc1c(C(=O)O)oc2ccc(S(=O)(=O)N(CCc3ccccc3)Cc3cccc(Cl)c3)cc12 [Example F27-S21, 3-methyl-5-(N-(3-chlorobenzyl)-N-phenethylsulfamoyl)benzofuran-2-carboxylic acid]	10 to 50 µM	> 380 °C (dec.)	
Cc1c(C(=O)O)oc2ccc(S(=O)(=O)N(CCc3ccccc3)Cc3ccc(/C=C/C(=O)O)cc3)cc12 [Example F27-S42, (E)-3-methyl-5-(N-(4-(2-carboxyvinyl)benzyl)-N-phenethylsulfamoyl)benzofuran-2-carboxylic acid]	50 to 100 µM	270 to 271 °C	
Cc1ccccc1CN(CCc1ccccc1)S(=O)(=O)c1ccc2oc(C(=O)O)c(C)c2c1 [Example F27-S17, 3-methyl-5-(N-(2-methylbenzyl)-N-phenethylsulfamoyl)benzofuran-2-carboxylic acid]	10 to 50 µM	199 to 200 °C	
CC(=O)N1CCN(c2ccccc2N(CCc2ccccc2)S(=O)(=O)c2ccc3oc(C(=O)O)c(C)c3c2)CC1 [Example F27-S91, 3-methyl-5-(N-(2-(4-acetylpiperazin-1-yl)phenyl)-N-phenethylsulfamoyl)benzofuran-2-carboxylic acid]	50 to 100 µM	196 to 197 °C	
Cc1c(C(=O)O)oc2ccc(S(=O)(=O)N(CCc3ccccc3)Cc3ccccc3Br)cc12 [Example F27-S16, 3-methyl-5-(N-(2-bromobenzyl)-N-phenethylsulfamoyl)benzofuran-2-carboxylic acid]	10 to 50 µM	170 to 171 °C	
CCOC(=O)c1oc2ccc(S(=O)(=O)N(CCc3ccccc3)c3ccccc3N3CCN(C(C)=O)CC3)cc2c1C [Example M10-91, ethyl 3-methyl-5-(N-(2-(4-acetylpiperazin-1-yl)phenyl)-N-phenethylsulfamoyl)benzofuran-2-carboxylate]	50 to 100 µM		
CCOC(=O)c1oc2ccc(S(=O)(=O)N(CCc3ccccc3)Cc3ccc(-c4ccccc4)cc3)cc2c1C [Example M4-82]	50 to 100 µM		
CCOC(=O)c1oc2ccc(S(=O)(=O)N(CCc3ccccc3)Cc3ccc(N4CCN(C)CC4)cc3)cc2c1C [Example M8-80, ethyl 3-methyl-5-(N-(4-(4-methylpiperazin-1-yl)benzyl)-N-phenethylsulfamoyl)benzofuran-2-carboxylate]	50 to 100 µM		
Cc1c(C(=O)O)oc2ccc(S(=O)(=O)N(CCc3ccccc3)Cc3ccc(Oc4ccccc4)cc3)cc12 [Example F27-S86]	10 to 50 µM		
Cc1c(C(=O)O)sc2ccc(S(=O)(=O)N(CCc3cccs3)c3ccccc3N3CCN(C(=O)c4sccc4Br)CC3)cc12 [Example F27-S183, 5-(N-(2-(4-(3-bromothiophene-2-carbonyl)piperazin-1-yl)phenyl)-N-(2-(thiophen-2-yl)ethyl)sulfamoyl)-3-methylbenzothiophene-2-carboxylic acid]			0.1 to 10 µM
CCOC(=O)c1oc2ccc(S(=O)(=O)N(CCc3ccccc3)c3ccccc3N3CCN(C(=O)OC(C)(C)C)CC3)cc2c1C [Example M8-77, ethyl 3-methyl-5-(N-(2-(4-(tert-butoxycarbonyl)piperazin-1-yl)phenyl)-N-phenethylsulfamoyl)benzofuran-2-carboxylate]	50 to 100 µM		
Cc1c(C(=O)O)oc2ccc(S(=O)(=O)N(CCc3ccccc3)c3ccccc3N3CC4(CCN(C(=O)c5sccc5Br)CC4)C3)cc12 [Example F27-S149, 5-(N-(2-(7-(3-bromothiophene-2-carbonyl)-2,7-diazaspiro[3.5]nonan-2-yl)phenyl)-N-phenethylsulfamoyl)-3-methylbenzofuran-2-carboxylic acid]			0.1 to 10 µM
Cc1c(C(=O)O)oc2ccc(S(=O)(=O)N(CCc3ccccc3)c3ccccc3N3CCN(C(=O)c4ccc(C(F)(F)F)cc4)CC3)cc12 [Example F27-S110, 3-methyl-5-(N-phenethyl-N-(2-(4-(4-(trifluoromethyl)benzoyl)piperazin-1-yl)phenyl)sulfamoyl)benzofuran-2-carboxylic acid]			0.1 to 10 µM
CCOC(=O)c1sc2ccc(S(=O)(=O)N(CCc3ccc(C(F)(F)F)cc3)c3ccccc3N3CCN(C(=O)c4sccc4Br)CC3)cc2c1C [Example M10-169, Ethyl 5-(N-(2-(4-(3-bromothiophene-2-carbonyl)piperazin-1-yl)phenyl)-N-(4-(trifluoromethyl)phenethyl)sulfamoyl)-3-methylbenzothiophene-2-carboxylate]			50 to 100 µM
CCOC(=O)c1oc2ccc(S(=O)(=O)N(CCc3ccccc3)Cc3ccccc3Cl)cc2c1C [Example M4-15, ethyl 3-methyl-5-(N-(2-chlorobenzyl)-N-phenethylsulfamoyl)benzofuran-2-carboxylate]	50 to 100 µM		
Cc1cc(C)c(C(=O)N2CCN(c3ccccc3N(CCc3ccccc3)S(=O)(=O)c3ccc4oc(C(=O)O)c(C)c4c3)CC2)c(C)c1 [Example F27-S135, 5-(N-(2-(4-(2,4,6-trimethylbenzoyl)piperazin-1-yl)phenyl)-N-phenethylsulfamoyl)3-methylbenzofuran-2-carboxylic acid]			0.1 to 10 µM
Cc1c(C(N)=O)oc2ccc(S(=O)(=O)N(CCc3ccccc3)c3ccccc3N3CCN(C(=O)c4sccc4Br)CC3)cc12 [Example F27-S178, 5-(N-(2-(4-(3-bromothiophene-2-formyl)piperazin-1-yl)phenyl)-N-phenethylsulfamoyl)3-methylbenzofuran-2-carboxamide]			0.1 to 10 µM
Cc1c(C(=O)O)sc2ccc(S(=O)(=O)N(CCc3ccc(C#N)cc3)c3ccccc3N3CCN(C(=O)c4sccc4Br)CC3)cc12 [Example F27-S169]			0.1 to 10 µM
Cc1c(C(=O)O)oc2ccc(S(=O)(=O)N(CCc3ccccc3)c3ccccc3N3CCN(C(=O)c4ccc([N+](=O)[O-])cc4)CC3)cc12 [Example F27-S114, 3-methyl-5-(N-(2-(4-(4-nitrobenzoyl)piperazin-1-yl)phenyl)-N-phenethylsulfamoyl)benzofuran-2-carboxylic acid]			0.1 to 10 µM
Cc1ccc(C)c(C(=O)N2CCN(c3ccccc3N(CCc3ccccc3)S(=O)(=O)c3ccc4oc(C(=O)O)c(C)c4c3)CC2)c1 [Example F27-S137, 5-(N-(2-(4-(2,5-Dimethylbenzoyl)piperazin-1-yl)phenyl)-N-phenethylsulfamoyl)3-methylbenzofuran-2-carboxylic acid]			0.1 to 10 µM
CCOC(=O)c1oc2ccc(S(=O)(=O)N(CCc3ccccc3)Cc3ccc(F)cc3)cc2c1C [Example M4-28, ethyl 3-methyl-5-(N-(4-fluorobenzyl)-N-phenethylsulfamoyl)benzofuran-2-carboxylate]	50 to 100 µM		
O=C(O)c1cc2cc(S(=O)(=O)N(CCc3ccccc3)c3ccccc3N3CCN(C(=O)c4sccc4Br)CC3)ccc2o1 [Example F27-S162, 5-(N-(2-(4-(3-bromothiophene-2-formyl)piperazin-1-yl)phenyl)-N-phenethylsulfamoyl)benzofuran-2-carboxylic acid]			0.1 to 10 µM
Cc1ccc(C(=O)N2CCN(c3ccccc3N(CCc3ccccc3)S(=O)(=O)c3ccc4oc(C(=O)O)c(C)c4c3)CC2)cc1 [Example F27-S106, 3-methyl-5-(N-(2-(4-(4-methylbenzoyl)piperazin-1-yl)phenyl)-N-phenethylsulfamoyl)benzofuran-2-carboxylic acid]			0.1 to 10 µM
CCOC(=O)c1oc2ccc(S(=O)(=O)N(CCc3ccccc3)c3ccccc3N3CCN(C(=O)c4ccc(C)cc4)CC3)cc2c1C [Example M10-106, ethyl 3-methyl-5-(N-(2-(4-(4-methylbenzoyl)piperazin-1-yl)phenyl)-N-phenethylsulfamoyl)benzofuran-2-carboxylate]			50 to 100 µM
O=C(O)c1cc2ccc(S(=O)(=O)N(CCc3ccccc3)c3ccccc3N3CCN(C(=O)c4sccc4Br)CC3)cc2o1 [Example F27-S164, 6-(N-(2-(4-(3-bromothiophene-2-formyl)piperazin-1-yl)phenyl)-N-phenethylsulfamoyl)benzofuran-2-carboxylic acid]			0.1 to 10 µM
